Assay results as given in US9067977B2, “Peptides derivatized with A-B-C-D- and their therapeutical use” (Novo Nordisk A/S, priority 2007, dated 2015).
pEC50: −log10 of the molar value. Starred links: 1 amine or outer side, 2 acyl side, 3 side chain; linkers in the order of their positions; H or OH if unused. Non-standard residues stand in square brackets, D forms with d. Residues, ends and D or L forms follow the SMILES beside them. Groups on a side chain read outwards from the residue. *: point of attachment. X2 = O=C(O)CCCCCCCCCCCCCCCCCCC(=O)NCC1CCC(C(=O)*)CC1; C20 diacid = O=C(O)CCCCCCCCCCCCCCCCCCC(=O)*; βAsp = O=C(O)[C@H](CC(=O)[*:2])N[*:1]; AEEA = NCCOCCOCC(=O)O; Aib = CC(C)(N)C(=O)O; Inp = O=C(O)C1CCNCC1

Biological target: human serum albumin (HSA) (Homo sapiens, UniProt P02768)
Test: Albumin binding affinity, competition scintillation proximity assay
Method: Streptavidin-SPA beads (GE Healthcare RPNQ0009) were incubated with biotinylated HSA for 5 hours. The beads were washed with buffer to remove unbound HSA. […] After 20 hours of gentle rocking at room temperature the plates were centrifuged and counted on a TopCounter.

Sequence of human serum albumin (HSA) (P02768 25-609): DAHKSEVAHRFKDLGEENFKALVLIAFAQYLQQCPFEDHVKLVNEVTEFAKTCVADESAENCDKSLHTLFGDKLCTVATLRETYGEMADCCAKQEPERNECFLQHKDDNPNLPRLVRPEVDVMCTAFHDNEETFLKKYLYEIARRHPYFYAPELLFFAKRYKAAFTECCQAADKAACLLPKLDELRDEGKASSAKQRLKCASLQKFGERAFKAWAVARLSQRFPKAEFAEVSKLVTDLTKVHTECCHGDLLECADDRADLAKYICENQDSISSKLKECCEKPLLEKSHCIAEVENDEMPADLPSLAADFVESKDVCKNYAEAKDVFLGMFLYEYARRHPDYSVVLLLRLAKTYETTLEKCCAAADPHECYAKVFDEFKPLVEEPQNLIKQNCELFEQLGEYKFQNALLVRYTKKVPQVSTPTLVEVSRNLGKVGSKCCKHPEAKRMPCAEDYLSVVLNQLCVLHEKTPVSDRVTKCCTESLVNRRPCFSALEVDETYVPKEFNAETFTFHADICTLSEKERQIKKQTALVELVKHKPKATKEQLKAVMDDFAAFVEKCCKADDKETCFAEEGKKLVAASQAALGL

CC[C@H](C)[C@H](NC(=O)[C@H](Cc1ccccc1)NC(=O)[C@H](CCC(=O)O)NC(=O)[C@H](CCCNC(=N)N)NC(=O)[C@H](C)NC(=O)[C@H](C)NC(=O)[C@H](CCC(N)=O)NC(=O)[C@H](CCC(=O)O)NC(=O)[C@H](CCC(=O)O)NC(=O)[C@H](CC(C)C)NC(=O)[C@H](Cc1ccc(O)cc1)NC(=O)[C@H](CO)NC(=O)[C@H](CO)NC(=O)[C@@H](NC(=O)[C@H](CC(=O)O)NC(=O)[C@H](CO)NC(=O)[C@@H](NC(=O)[C@H](Cc1ccccc1)NC(=O)[C@@H](NC(=O)CNC(=O)[C@H](CCC(=O)O)NC(=O)C(C)(C)NC(=O)[C@@H](N)Cc1c[nH]cn1)[C@@H](C)O)[C@@H](C)O)C(C)C)C(=O)N[C@@H](C)C(=O)N[C@@H](Cc1c[nH]c2ccccc12)C(=O)N[C@@H](CC(C)C)C(=O)N[C@H](C(=O)N[C@@H](CCCNC(=N)N)C(=O)NCC(=O)N[C@@H](CCCNC(=N)N)C(=O)NCC(=O)N[C@@H](CCCCNC(=O)COCCOCCNC(=O)COCCOCCNC(=O)C[C@H](NC(=O)C1CCC(CNC(=O)CCCCCCCCCCCCCCCCCCC(=O)O)CC1)C(=O)O)C(N)=O)C(C)C (stereo partly drawn) [Example 22, [Aib8,Glu22,Arg26,Arg34]GLP-1-(7-37)Lys[2-(2-[2-(2-[2-(2-((S)-3-[4-([19-Carboxynonadecanoylamino]methyl)cyclohexylcarbonylamino]-3-carboxypropionylamino)ethoxy)ethoxy]acetylamino)ethoxy]ethoxy)acetyl]amide] (H-H[Aib]EGTFTSDVSSYLEEQAAREFIAWLVRGRGK([AEEA-AEEA-βAsp-X2])-NH2; N-terminus assumed) was tested, and the pEC50 was 6.52 to 6.82.

For CC[C@H](C)[C@H](NC(=O)[C@H](Cc1ccccc1)NC(=O)[C@H](CCC(=O)O)NC(=O)[C@H](CCCNC(=N)N)NC(=O)[C@H](C)NC(=O)[C@H](C)NC(=O)[C@H](CCC(N)=O)NC(=O)[C@H](CCC(=O)O)NC(=O)[C@H](CCC(=O)O)NC(=O)[C@H](CC(C)C)NC(=O)[C@H](Cc1ccc(O)cc1)NC(=O)[C@H](CO)NC(=O)[C@H](CO)NC(=O)[C@@H](NC(=O)[C@H](CC(=O)O)NC(=O)[C@H](CO)NC(=O)[C@@H](NC(=O)[C@H](Cc1ccccc1)NC(=O)[C@@H](NC(=O)CNC(=O)[C@H](CCC(=O)O)NC(=O)C(C)(C)NC(=O)[C@@H](N)Cc1c[nH]cn1)[C@@H](C)O)[C@@H](C)O)C(C)C)C(=O)N[C@@H](C)C(=O)N[C@@H](CCCCNC(=O)COCCOCCNC(=O)COCCOCCNC(=O)C[C@H](NC(=O)C1CCN(C(=O)CCCCCCCCCCCCCCCCCCC(=O)O)CC1)C(=O)O)C(=O)N[C@@H](CC(C)C)C(=O)N[C@H](C(=O)N[C@@H](CCCNC(=N)N)C(=O)NCC(=O)N[C@@H](CCCNC(=N)N)C(=O)NCC(=O)O)C(C)C [Example 15, N-epsilon31-(2-{2-[2-(2-{2-[2-((S)-3-Carboxy-3-{[1-(19-carboxy-nonadecanoyl)piperidine-4-carbonyl]amino}propionylamino)ethoxy]ethoxy}acetylamino)ethoxy]ethoxy}acetyl)[Aib8,Glu22,Arg26,Lys31,Arg34]GLP-1-(7-37)] (H-H[Aib]EGTFTSDVSSYLEEQAAREFIAK([AEEA-AEEA-βAsp-Inp-C20 diacid])LVRGRG-OH), the pEC50 was 6.52 to 6.82.
